Series [1] is described as follows: Hepatic clearance in human liver microsomes. The format is ADME, Microsome. The note with it: read-out: CLH.
Series [2] is described as follows: Lipophilicity, log D of the compound. The format is physicochemical. Conditions: octanol/water.
Series [3] in a line: Systemic clearance in rat at 1 mg/kg, iv. The note with it: in vivo. Format: ADME, organism-based. The arrangement: dose 1 mg/kg, route intravenous.
The nature of series [4]: AUC (last) in rat at 5 mg/kg, po. The format is ADME, organism-based. The arrangement: time 0 - last, dose 5 mg/kg, route oral. The note with it: plasma.
The nature of series [5]: Cmax in rat at 5 mg/kg, po. The format is ADME, organism-based. The arrangement: dose 5 mg/kg, route oral. Conditions: in vivo.
Series [6] can be described thus: Oral bioavailability in rat at 5 mg/kg. The format is ADME, organism-based. The note with it: in vivo.
Series [7] is described as follows: Solubility of the compound at pH 6.5. Format: physicochemical. The note with it: buffer.
Series [8] can be described thus: Volume of distribution in rat at 1 mg/kg, iv. Format: ADME, organism-based. The arrangement: dose 1 mg/kg, route intravenous. Conditions: in vivo.
Series [9] is described as follows: Thermodynamic solubility of the compound at pH 1.2. Format: physicochemical. Conditions: buffer, read-out: Therm_solubility.

Values after ≈ are worked out from the molar mass of the structure shown.

Turning to `Cc1n[nH]c2c(C)cc(C(=O)N3CCC4(CC3)Cc3cnn(C(C)(C)C)c3C(=O)N4)cc12`, the microsomal CLint in [1] was found to be 17 µL/min/mg. The compound also gave a logD in series [2] of 2.6.

On to `Cc1ccc2c(c1)C(=O)CC1(CCN(C(=O)c3ccc4[nH]ncc4c3)CC1)O2`, for which, in series [1], the microsomal CLint was determined as 19 µL/min/mg. The compound further showed a logD in series [2] of 2.5.

In the case of `COc1nccc2ccc(C(=O)N3CCC4(CC3)Cc3cn(C(C)(C)C)nc3C(=O)N4)cc12`, the clearance in [3] worked out at 41 mL/min/kg. In series [4], this compound returned an exposure AUC(0-t) of 713 ng·h/mL. The compound further showed a Cmax in [5] of 186 ng/mL. In [6], the bioavailability stood at 28%. Further, the solubility in series [7] was found to be 0.13 µg/mL (≈ 0.29 µM). Moreover, the microsomal CLint in [1] came to 12 µL/min/mg. Further, the logD in series [2] worked out at 2.

On to `Cc1n[nH]c2c(C)cc(C(=O)N3CCC4(CC3)Cc3cnn(C(C)C)c3C(=O)N4)cc12`, for which, in [1], the microsomal CLint was under 8 µL/min/mg. The logD in [2] is 1.7.

Turning to `CCC(C)(C)n1cc2c(n1)C(=O)NC1(CCN(C(=O)c3cc(C)c4[nH]nc(C)c4c3)CC1)C2`, in [1], the microsomal CLint was determined as 35 µL/min/mg. For the same compound, in series [2], the log distribution coefficient (logD) is 1.7.

Take `CC(C)(C)n1cc2c(n1)C(=O)NC1(CCN(C(=O)c3ccc4[nH]cc(Cl)c4c3)CC1)C2`: the microsomal CLint in series [1] was 17 µL/min/mg. Also, the logD in [2] came out at 2.6.

Turning to `CC(C)(C)n1cc2c(n1)C(=O)NC1(CCN(C(=O)c3ccc4[nH]nc(C(F)(F)F)c4c3)CC1)C2`, the microsomal CLint in series [1] is under 8 µL/min/mg. Besides, the pH-dependent lipophilicity (logD) in series [2] was 2.5.

As for `Cc1n[nH]c2c(C)cc(C(=O)N3CCC4(CC3)Cc3cn(C(C)C)nc3C(=O)N4)cc12`, in [1], the microsomal CLint was under 8 µL/min/mg. Also, the logD in series [2] is 1.1.

With `CC(C)(C)n1cc2c(n1)C(=O)CC1(CCN(C(=O)c3ccc4[nH]ncc4c3)CC1)O2`, the microsomal CLint in series [1] is under 9 µL/min/mg. The compound also had a logD in [2] of 1.4.

`CCCNc1ccc2ccc(C(=O)N3CCC4(CC3)Cc3cn(C(C)(C)C)nc3C(=O)N4)cc2n1`: the microsomal CLint in series [1] is 29 µL/min/mg. Besides, the logD in series [2] came out at 2.1.

With `CNc1nccc2ccc(C(=O)N3CCC4(CC3)Cc3cn(C(C)(C)C)nc3C(=O)N4)cc12`, the microsomal CLint in [1] came out at 25 µL/min/mg. This compound also registered a logD in [2] of 1.5.

With `COc1cc2cc(C(=O)N3CCC4(CC3)Cc3cn(C(C)(C)C)nc3C(=O)N4)ccc2cn1`, the microsomal CLint in series [1] was under 8 µL/min/mg. In addition, the logD in series [2] was determined as 1.6.

In the case of `Cc1n[nH]c2c(C)cc(C(=O)N3CCC4(CC3)Cc3cn(C(C)(C)C)nc3C(=O)N4C)cc12`, the microsomal CLint in series [1] stood at 14 µL/min/mg. Also, in [2], the logD is 1.4.

On to `CC(C)(C)n1cc2c(n1)C(=O)NC1(CCN(C(=O)c3ccc4[nH]nc(Cl)c4c3)CC1)C2`, for which, in [1], the microsomal CLint is under 8 µL/min/mg. This compound returned a log distribution coefficient (logD) in series [2] of 1.8.

For the compound `CC(C)(C)n1cc2c(n1)C(=O)NC1(CCN(C(=O)c3cnc4c(Cl)c[nH]c4c3)CC1)C2`, the microsomal CLint in series [1] was under 8 µL/min/mg. Moreover, in [2], the logD amounted to 1.4.

With `Cc1n[nH]c2c(C)cc(C(=O)N3CCC4(CC3)Cc3cn(C(C)(C)C)nc3C(=O)N4)cc12`, the microsomal CLint in series [1] was under 8 µL/min/mg. Moreover, the logD in [2] was 1.5.

As for `CN(C)c1ccc2ccc(C(=O)N3CCC4(CC3)Cc3cn(C(C)(C)C)nc3C(=O)N4)cc2n1`, the microsomal CLint in series [1] was 19 µL/min/mg. Moreover, the logD in series [2] came out at 1.9.

In the case of `COc1ccc2ccc(C(=O)N3CCC4(CC3)Cc3cn(C(C)(C)C)nc3C(=O)N4)cc2n1`, the clearance in series [3] was determined as 29 mL/min/kg. The compound further showed a Vd in series [8] of 1.7 L/kg. This compound also came in with an AUC(0-t) in series [4] of 2070 ng·h/mL. In series [5], the peak level (Cmax) was 403 ng/mL. The compound further returned a bioavailability in series [6] of 71%. Moreover, the solubility in series [7] amounted to 0.05 µg/mL (≈ 0.112 µM). The solubility thermodynamic in series [9] is 0.49 µg/mL (≈ 1.09 µM). Also, the microsomal CLint in series [1] was under 8 µL/min/mg. In series [2], the log distribution coefficient (logD) turned out to be 2.2.

Consider `CC(C)(C)n1cc2c(n1)C(=O)NC1(CCN(C(=O)c3ccc4c(Cl)c[nH]c4c3)CC1)C2`, for which the microsomal CLint in [1] turned out to be 31 µL/min/mg. Moreover, the logD in series [2] was found to be 3.5.

Turning to `CNc1ccc2ccc(C(=O)N3CCC4(CC3)Cc3cn(C(C)(C)C)nc3C(=O)N4)cc2n1`, the solubility thermodynamic in [9] was 4.8 µg/mL (≈ 10.7 µM). Besides, the microsomal CLint in series [1] was found to be 9 µL/min/mg. The logD in [2] is 1.5.

Consider `CC(C)(C)n1cc2c(n1)C(=O)NC1(CCN(C(=O)c3ccc4[nH]ncc4c3)CC1)C2`, for which the microsomal CLint in series [1] is under 8 µL/min/mg. In series [2], this compound gave a logD of 1.
